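A five-concentration, 48-hour dose response in 96-well plates underlies each endpoint, interpolated linearly between surrounding concentrations. TGI: concentration producing complete growth inhibition.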
Experiments:
Assay in all cases: growth of human tumour cells (NCI), 48 h
COLO 205 colon = tested on: COLO 205 colon
NCI-H522 lung = tested on: NCI-H522 lung
SR leukemia = tested on: SR leukemia
SNB-75 CNS = tested on: SNB-75 CNS
A498 renal = tested on: A498 renal
KM12 colon = tested on: KM12 colon
HL-60(TB) leukemia = tested on: HL-60(TB) leukemia
HCC-2998 colon = tested on: HCC-2998 colon
M14 melanoma = tested on: M14 melanoma
BT-549 breast = tested on: BT-549 breast
HOP-92 NSCLC = tested on: HOP-92 NSCLC
SNB-19 CNS = tested on: SNB-19 CNS

## COc1cc(C2S/C(=C/c3ccccc3)C(=O)N2Cc2ccccc2)cc(OC)c1OC (configuration not stated)
COLO 205 colon
  TGI: > 100 µM
NCI-H522 lung
  TGI: 62.8 µM
SR leukemia
  TGI: 57.2 µM
SNB-75 CNS
  TGI: 73.3 µM
A498 renal
  TGI: > 100 µM
KM12 colon
  TGI: > 100 µM
HL-60(TB) leukemia
  TGI: > 100 µM
HCC-2998 colon
  TGI: 69.4 µM
M14 melanoma
  TGI: > 100 µM
BT-549 breast
  TGI: > 100 µM
HOP-92 NSCLC
  TGI: > 100 µM
SNB-19 CNS
  TGI: > 100 µM
